This passage reports MIC results from DBAASP.

In general, MIC refers to the lowest concentration found to suppress growth. High values mean a need for much substance, low ones inhibition by little substance.

Molecules are shown by their SMILES. ≈ marks a conversion by molar mass, not a printed value. Where “and” joins values, the source holds several entries; their conditions need not be identical. Equal entries are not always repeated.

Among the test systems are Staphylococcus aureus; Staphylococcus aureus MR; Escherichia coli; Pseudomonas aeruginosa; Escherichia coli K-12; Escherichia coli 078; Escherichia coli K88; Escherichia coli K99; Escherichia coli UB1005; Candida albicans; Acinetobacter baumannii.
Test in all cases: ≥ marks a high value that may be exact or a test limit, other limits are often not marked, values filed in µg/mL are converted to µM
For test [1], the system named is Staphylococcus aureus USA 300.
Test [2] relates to Pseudomonas aeruginosa ATCC 10145.
In test [3] the test system is Staphylococcus aureus ATCC BAA-1556.
For test [4], the system named is Staphylococcus aureus ATCC 29213.
The test system of test [5] is Salmonella enterica subsp. enterica serovar Typhimurium C77-31.
In test [6] the test system is Salmonella enterica subsp. enterica serovar Typhimurium ATCC 14028.
The test system of test [7] is Staphylococcus aureus ATCC 25923.
The test system of test [8] is Salmonella enterica subsp. enterica serovar Pullorum C79-13.
For test [9], the system named is Escherichia coli ATCC 25922.
For test [10], the system named is Bacillus subtilis CMCC 63501.
The test system of test [11] is Enterococcus faecalis ATCC 29212.
Test [12] concerns Staphylococcus epidermidis ATCC 12228.
For test [13], the system named is Pseudomonas aeruginosa H103.
For test [14], the system named is Staphylococcus epidermidis.
Test [15] has as its system Salmonella enterica serovar Typhimurium.
Test [16] deals with Erwinia amylovora PMV 6076.
In test [17] the test system is Pseudomonas syringae pv. syringae EPS 94.
Test [18] relates to Pseudomonas aeruginosa PAO1.

Regarding `CC[C@H](C)[C@H](NC(=O)[C@H](C)NC(=O)[C@H](CC(C)C)NC(=O)[C@H](CCCN=C(N)N)NC(=O)[C@H](CC(C)C)NC(=O)[C@H](C)N)C(=O)N[C@@H](CCCN=C(N)N)C(=O)N[C@@H](CCCCN)C(=O)N[C@@H](CCCN=C(N)N)C(N)=O` [ALRLAIRKR], the MIC was 4.56 µM (≈ 5 µg/mL) in the test with Staphylococcus aureus, not below 43.8 µM against Staphylococcus aureus MR, 3.65 µM (≈ 4 µg/mL) in the test with Escherichia coli and 13.7 µM (≈ 15 µg/mL) against Pseudomonas aeruginosa.

Consider `CC[C@H](C)[C@H](NC(=O)[C@H](C)NC(=O)[C@H](CC(C)C)NC(=O)[C@H](CC(C)C)NC(=O)[C@H](Cc1c[nH]c2ccccc12)NC(=O)[C@H](C)N)C(=O)N[C@@H](CCCN=C(N)N)C(=O)N[C@@H](CCCCN)C(=O)N[C@@H](CCCN=C(N)N)C(N)=O` [AWLLAIRKR], for which the MIC against Staphylococcus aureus worked out at 2.66 µM (≈ 3 µg/mL); against Staphylococcus aureus MR, 22.2 µM (≈ 25 µg/mL); against Escherichia coli, 4.44 µM (≈ 5 µg/mL); in the test with Pseudomonas aeruginosa, 3.55 µM (≈ 4 µg/mL).

Take `CC[C@H](C)[C@H](NC(=O)[C@H](C)NC(=O)[C@H](CCCCN)NC(=O)[C@H](Cc1ccccc1)NC(=O)CN)C(=O)N[C@H](C(=O)N[C@@H](CCC(N)=O)C(=O)N[C@@H](CCCN=C(N)N)C(=O)N[C@H](C(=O)N[C@@H](CCCCN)C(=O)N[C@@H](CC(=O)O)C(=O)N[C@@H](Cc1ccccc1)C(=O)N[C@@H](CC(C)C)C(=O)N[C@@H](CCCN=C(N)N)C(=O)N[C@@H](CC(N)=O)C(=O)N[C@@H](CC(C)C)C(=O)N[C@H](C(N)=O)C(C)C)[C@@H](C)CC)C(C)C` [GFKAIVQRIKDFLRNLV]: the MIC against Escherichia coli K-12 was 15 µM (≈ 30.2 µg/mL); in [1], 7.5 µM and 3.1 µM.

`C[C@H](NC(=O)[C@H](C)NC(=O)[C@H](CCCCN)NC(=O)[C@H](CCCCN)NC(=O)[C@H](C)NC(=O)[C@H](Cc1ccccc1)NC(=O)[C@H](CCCCN)NC(=O)[C@H](CCCCN)NC(=O)[C@H](C)NC(=O)[C@H](C)NC(=O)[C@H](CCCCN)NC(=O)[C@H](CCCCN)NC(=O)[C@H](C)NC(=O)[C@H](Cc1ccccc1)NC(=O)[C@@H](N)CCCCN)C(=O)N[C@@H](CCCCN)C(=O)O` [KFAKKAAKKFAKKAAK] displayed an MIC in test [2] not below 142 µM.

Consider `CC(C)C[C@H](NC(=O)[C@H](CC(C)C)NC(=O)[C@H](CCCCN)NC(=O)[C@H](CC(C)C)NC(=O)[C@H](CC(C)C)NC(=O)[C@H](Cc1c[nH]c2ccccc12)NC(=O)[C@@H](N)CCCCN)C(N)=O` [KWLLKLL], for which the MIC in test [3] was not below 100 µM.

With `CC[C@H](C)[C@H](NC(=O)[C@H](Cc1c[nH]c2ccccc12)NC(=O)[C@H](CC(C)C)NC(=O)[C@H](CCCN=C(N)N)NC(=O)[C@H](Cc1c[nH]c2ccccc12)NC(=O)[C@@H](N)CCCCN)C(=O)N[C@@H](CCCN=C(N)N)C(=O)N[C@@H](Cc1c[nH]c2ccccc12)C(=O)N[C@@H](CC(C)C)C(N)=O` [KWRLWIRWL], the MIC in [3] was determined as 12.5 µM (≈ 16.9 µg/mL).

In test [3], `CC[C@H](C)[C@H](NC(=O)[C@H](Cc1c[nH]c2ccccc12)NC(=O)[C@H](CCCN=C(N)N)NC(=O)[C@H](CCCN=C(N)N)NC(=O)[C@H](Cc1c[nH]c2ccccc12)NC(=O)[C@@H](N)CCCCN)C(=O)N[C@@H](C)C(=O)N[C@@H](Cc1c[nH]c2ccccc12)C(=O)N[C@@H](CC(C)C)C(N)=O` [KWRRWIAWL] showed an MIC of 12.5 µM (≈ 16.4 µg/mL).

With `CC[C@H](C)[C@H](NC(=O)[C@H](Cc1c[nH]c2ccccc12)NC(=O)[C@H](CCCN=C(N)N)NC(=O)[C@H](CCCN=C(N)N)NC(=O)[C@H](Cc1c[nH]c2ccccc12)NC(=O)[C@@H](N)CCCCN)C(N)=O` [KWRRWI], the MIC in test [3] was not below 100 µM.

Regarding `CC(C)C[C@H](NC(=O)[C@H](CCCCN)NC(=O)[C@H](CC(C)C)NC(=O)[C@H](CC(C)C)NC(=O)[C@H](CC(C)C)NC(=O)[C@H](CCCCN)NC(=O)[C@@H](N)CC(C)C)C(N)=O` [LKLLLKL], in test [3], the MIC is not below 100 µM.

On to `CC[C@H](C)[C@H](NC(=O)[C@H](Cc1c[nH]c2ccccc12)NC(=O)[C@H](CCCCN)NC(=O)[C@H](CC(C)C)NC(=O)[C@@H](NC(=O)[C@H](Cc1c[nH]c2ccccc12)NC(=O)CNC(=O)[C@@H](NC(=O)[C@H](CCCCN)NC(=O)[C@H](CCCCN)NC(=O)[C@H](CC(C)C)NC(=O)[C@@H](N)CCCN=C(N)N)[C@@H](C)CC)C(C)C)C(N)=O` [RLKKIGWVLKWI], for which the MIC amounted to 4 µM (≈ 6.16 µg/mL) in test [4]; 4 µM (≈ 6.16 µg/mL) in test [5]; 4 µM (≈ 6.16 µg/mL) in test [6]; 4 µM (≈ 6.16 µg/mL) in test [7]; 1 µM (≈ 1.54 µg/mL) in test [8]; 2 µM (≈ 3.08 µg/mL) in test [9]. Further, the MIC in [10] stood at 2 µM (≈ 3.08 µg/mL); with Escherichia coli 078 it was 4 µM (≈ 6.16 µg/mL); in the test with Escherichia coli K88, 1 µM (≈ 1.54 µg/mL); in test [11], 4 µM (≈ 6.16 µg/mL); against Escherichia coli K99, 4 µM (≈ 6.16 µg/mL); in the test on Escherichia coli UB1005, 1 µM (≈ 1.54 µg/mL). Further, the MIC in [12] was determined as 4 µM (≈ 6.16 µg/mL).

Turning to `CC(C)[C@H](NC(=O)[C@H](CCCN=C(N)N)NC(=O)[C@H](Cc1c[nH]c2ccccc12)NC(=O)[C@H](Cc1c[nH]c2ccccc12)NC(=O)[C@H](Cc1c[nH]c2ccccc12)NC(=O)[C@H](CCCN=C(N)N)NC(=O)[C@H](Cc1c[nH]c2ccccc12)NC(=O)[C@@H](N)CCCN=C(N)N)C(=O)N[C@@H](Cc1ccc(O)cc1)C(=O)O` [RWRWWWRVY], the MIC in [7] is 3.3 µM (≈ 4.93 µg/mL); in [13], 13.2 µM (≈ 19.7 µg/mL); against Candida albicans, 13.2 µM (≈ 19.7 µg/mL); in test [11], 3.3 µM (≈ 4.93 µg/mL); in test [14], 1.6 µM (≈ 2.39 µg/mL); with Escherichia coli UB1005, 1.6 µM (≈ 2.39 µg/mL). The compound further had an MIC in test [15] of 3.3 µM (≈ 4.93 µg/mL).

For the compound `CC[C@H](C)[C@H](NC(=O)[C@H](CCCCN)NC(=O)[C@H](CCCCN)NC(=O)[C@H](Cc1ccccc1)NC(=O)[C@H](CC(C)C)NC(=O)[C@H](CCCCN)NC(=O)[C@H](CCCCN)NC(=O)[C@@H](N)CO)C(=O)N[C@@H](CC(C)C)C(=O)N[C@@H](CCCCN)C(=O)N[C@@H](Cc1ccc(O)cc1)C(=O)N[C@@H](CC(C)C)C(=O)N[C@@H](C)C(=O)NCC(=O)N1CCC[C@H]1C(=O)N[C@@H](C)C(=O)N[C@@H](CCCCN)C(=O)N[C@@H](Cc1ccccc1)C(=O)N[C@@H](CC(C)C)C(=O)N[C@@H](Cc1cnc[nH]1)C(=O)N[C@@H](CO)C(=O)N[C@@H](C)C(=O)N[C@@H](CCCCN)C(=O)O` [SKKLFKKILKYLAGPAKFLHSAK], the MIC in test [16] and in test [17] was 3.54 µM (≈ 9.25 µg/mL) throughout.

Take `CC[C@H](C)[C@H](NC(=O)[C@H](CCCN=C(N)N)NC(=O)[C@H](CC(C)C)NC(=O)[C@H](CCC(N)=O)NC(=O)[C@@H](N)C(C)C)C(=O)N[C@@H](CCCN=C(N)N)C(=O)N[C@H](C(=O)N[C@@H](CS)C(=O)N[C@H](C(=O)N[C@H](C(=O)N[C@@H](CCCN=C(N)N)C(=O)N[C@@H](CCCN=C(N)N)C(=O)O)[C@@H](C)CC)C(C)C)C(C)C` [VQLRIRVCVIRR]: the MIC was 15 µM (≈ 22.6 µg/mL) in the test with Staphylococcus aureus; 10.6 µM (≈ 16 µg/mL) in [7]; 30 µM (≈ 45.3 µg/mL) in the test on Acinetobacter baumannii; 10.6 µM (≈ 16 µg/mL) in test [9]; more than 84.7 µM in the test on Escherichia coli; 21.2 µM (≈ 32 µg/mL) in the test with Pseudomonas aeruginosa. Also, the MIC turned out to be 21.2 µM (≈ 32 µg/mL) in test [18] and 10.6 µM (≈ 16 µg/mL) in test [15].

Compound `CC(C)C[C@H](NC(=O)[C@H](CCCN=C(N)N)NC(=O)[C@H](Cc1c[nH]c2ccccc12)NC(=O)[C@H](CC(C)C)NC(=O)[C@H](Cc1c[nH]c2ccccc12)NC(=O)[C@H](Cc1c[nH]c2ccccc12)NC(=O)[C@H](CC(C)C)NC(=O)[C@H](Cc1c[nH]c2ccccc12)NC(=O)[C@@H](N)Cc1c[nH]c2ccccc12)C(N)=O` [WWLWWLWRL] displayed an MIC in [3] of 3.12 µM (≈ 4.51 µg/mL).
